Consider 14 molecules from publication PMC7284125, “Identification of annotated bioactive molecules that impair motility of the blood fluke Schistosoma mansoni” (International Journal for Parasitology: Drugs and Drug …, 2020).

Where two headings read alike, the source gives them in different places.

A word on the viability: it is a read-out of living cells in per cent, often relative to untreated cells.

Assay [1] deals with S. mansoni schistosomulae. The assay can be described thus: Phenotypic primary screen assay on schistosomulae (phenotype; viability by methylene blue dye exclusion). The format is cell-based. The settings on record: Schistosoma mansoni.
Assay [2] concerns S. mansoni schistosomulae. Description: Motility assay on schistosomulae (pixel displacement, relative to DMSO control). It counts as cell-based, Schistosoma mansoni. Conditions: for activity at 1 µM: Schistosoma mansoni, read-out: Fractional motility. An outline of the steps:
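Motility was scored by pixel displacement from 1-min videos (10 frames/s) and compared with DMSO controls. Schistosomulae (200/well, Opti-MEM, 5% dialyzed FBS, no antibiotics) received compound at 1 or 10 μM for 24 h; selected hits were also followed at 1, 3, 6 and 12 h.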

In the next assay the test system is S. mansoni adult worms. Description: Motility assay on adult parasites (pixel displacement, relative to DMSO control). It counts as cell-based, Schistosoma mansoni. Conditions: 10 μM; for Fractional motility: secondary screen. Put shortly: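 Unpaired adult worms from mice 6 weeks post-infection kept in OPTI-MEM with 5% dialyzed FBS and exposed to compounds at 1 and 10 μM for 24 h. Motility filmed 1 min at 10 frames/s, quantified by pixel displacement versus DMSO-treated worms; recovery followed up to five days after washout.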

The subject of assay [3] is S. mansoni schistosomulae. The assay can be described thus: Phenotypic primary screen assay on schistosomulae (phenotype; viability by methylene blue dye exclusion). The format is cell-based, Schistosoma mansoni. Conditions: three-day-old schistosomulae, 10 μM, 24 h; estimated 5 days post compound exposure. An outline of the steps: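 Parasites lacking contraction/relaxation cycles and showing dark internal granulations counted as dead. Movement and body shape were compared with DMSO-treated controls under a stereo microscope at 24 h and at five days of exposure. Larvae came from infected snails shed under light for 2 h at 32 °C.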

[4] abbreviates: three-day-old schistosomulae, 10 μM, 24 h, calculated 5 days post compound exposure, read-out: Viability (%).
The mark [5] stands for this setting: 120 h, schistosomulae, secondary screen, 24h exposure, read at D5, 1 µM.
The mark [6] stands for this setting: schistosomulae, secondary screen, 24h exposure, read at D1, 1 µM.
Where [7] appears, read: schistosomulae, secondary screen, 24h exposure, read at D1, 10 µM.
Setting [8] is: schistosomulae, secondary screen, 24h exposure, read at D5, 10 µM.

Take `CN1CCN(C2=Nc3cc(Cl)ccc3Nc3ccccc32)CC1` [Clozapine]: the viability at 10 µM in assay [1] (setting [4]) was 98%. In addition, the activity at 1 µM stood at 121% in assay [2] (setting [5]) and 625% in assay [2] (setting [6]). Besides, the Fractional motility in assay [2] (setting [7]) is 23.43; in assay [2] (setting [8]), -0.13; with S. mansoni adult worms (D1, Female adult worms) it was 2.39; in the assay on S. mansoni adult worms (D1, Male adult worms), 2.19; in the assay on S. mansoni adult worms (D5, Female adult worms) it was -0.70; with S. mansoni adult worms (D5, Male adult worms), 0.45. Also, the Phenotype entry in assay [3] is listed as “elongated”.
With `C=C1C(=O)O[C@@H]2/C=C(\C)CC/C=C(\C)CC[C@@H]12` [Costunolide], the viability at 10 µM in assay [1] (setting [4]) is 1.5%. In addition, the activity at 1 µM is 16% in assay [2] (setting [5]) and -57% in assay [2] (setting [6]). Also, the Fractional motility is recorded as -0.77 in assay [2] (schistosomulae, 1h exposure, read at D1, 10 µM); -0.29 in assay [2] (schistosomulae, 1h exposure, read at D5, 10 µM); 0.34 in assay [2] (schistosomulae, 3h exposure, read at D1, 10 µM); 1.03 in assay [2] (schistosomulae, 3h exposure, read at D5, 10 µM); 2.25 in assay [2] (schistosomulae, 6h exposure, read at D1, 10 µM); -0.56 in assay [2] (schistosomulae, 6h exposure, read at D5, 10 µM). Besides, the Fractional motility in assay [2] (setting [7]) was -0.92; in assay [2] (setting [8]), -0.94; in the assay on S. mansoni adult worms (D1, Female adult worms), -0.10; in the assay on S. mansoni adult worms (D5, Female adult worms), -0.83. Besides, the “motility in extended assay with reduced incubation times, in words” value in assay [2] (three-day old schistosomulae, incubation 1 h, 3 h, 6 h) is “did not exhibit a significant change before the 24 hr incubation cut-off”. Further, the Phenotype entry in assay [3] is listed as “big, granulated”.
For `CN(C)[C@@H](CCOc1cccc2ccccc12)c1ccccc1` [Dapoxetine], the viability at 10 µM in assay [1] (setting [4]) is 97.5%. Besides, in assay [2] (Selleckchem customized library secondary screen, 24h, D1, 1 µM), the activity at 1 µM was 253%. Moreover, the Fractional motility in assay [2] (Selleckchem customized library secondary screen, 24h, D1, 10 µM) is given as 69.58; in assay [2] (Selleckchem customized library secondary screen, 24h, D5, 10 µM), 15.51; in the assay with S. mansoni adult worms (D1, Female adult worms), 2.14; in the assay on S. mansoni adult worms (D1, Male adult worms), 2.05; in the assay on S. mansoni adult worms (D5, Female adult worms), -0.24; in the assay with S. mansoni adult worms (D5, Male adult worms), -0.50. Besides, in assay [3], the Phenotype entry was “elongated, granulated”.
`NC(=O)C(c1ccccc1)(c1ccccc1)[C@@H]1CCN(CCc2ccc3c(c2)CCO3)C1` [Darifenacin] returned a viability at 10 µM in assay [1] of 98.5%. Further, the activity at 1 µM in assay [2] (setting [5]) is -59%; in assay [2] (setting [6]), -60%. Moreover, the Fractional motility is listed as -0.70 in assay [2] (setting [7]); 0.35 in assay [2] (setting [8]); 1.90 in the assay with S. mansoni adult worms (D1, Female adult worms); 3.54 in the assay on S. mansoni adult worms (D1, Male adult worms); -0.69 in the assay with S. mansoni adult worms (D5, Female adult worms); -0.23 in the assay on S. mansoni adult worms (D5, Male adult worms). In addition, in assay [3], the Phenotype result was “elongated, granulated”.
Turning to `CN(C)CCC[C@@]1(c2ccc(F)cc2)OCc2cc(C#N)ccc21` [Escitalopram], the viability at 10 µM in assay [1] (setting [4]) is 98%. In addition, the activity at 1 µM in assay [2] (setting [5]) was 16%; in assay [2] (setting [6]) it was 361%. Further, the Fractional motility in assay [2] (setting [7]) is given as 5.42; in assay [2] (setting [8]), 0.71; with S. mansoni adult worms (D1, Female adult worms), 2.54; in the assay on S. mansoni adult worms (D1, Male adult worms), 6.67; in the assay with S. mansoni adult worms (D5, Female adult worms), 0.95; with S. mansoni adult worms (D5, Male adult worms), 0.26. For the same molecule, the Phenotype result in assay [3] is recorded as “abnormal morphology”.
Regarding `C[C@]12CC[C@@H]3c4ccc(O)cc4CC[C@H]3[C@@H]1CC[C@@H]2O` [Estradiol], the viability at 10 µM in assay [1] (setting [4]) is 98%. Besides, the activity at 1 µM in assay [2] (setting [5]) worked out at 23%; in assay [2] (setting [6]), 87%. Further, the Fractional motility in assay [2] (setting [7]) was 2.93; in assay [2] (setting [8]), 0.31; in the assay with S. mansoni adult worms (D1, Female adult worms), -0.35; in the assay with S. mansoni adult worms (D1, Male adult worms) it was 0.83; in the assay with S. mansoni adult worms (D5, Female adult worms), 0.13; in the assay with S. mansoni adult worms (D5, Male adult worms), 0.26. Besides, the Phenotype entry in assay [3] is given as “blebbing”.
For `CCCCCCCCc1ccc(CCC(N)(CO)CO)cc1` [Fingolimod], in assay [1] (setting [4]), the viability at 10 µM is 0%. Besides, the activity at 1 µM in assay [2] (setting [5]) is 151%; in assay [2] (setting [6]), 180%. Also, the Fractional motility is reported as 2.04 in assay [2] (setting [7]); -1.00 in assay [2] (setting [8]); -0.39 with S. mansoni adult worms (D1, Female adult worms); 0.65 in the assay on S. mansoni adult worms (D1, Male adult worms); -0.09 with S. mansoni adult worms (D5, Female adult worms); -0.15 with S. mansoni adult worms (D5, Male adult worms). Moreover, the Phenotype result in assay [3] was “dark, granulated”.
For the molecule `CNCCC(Oc1ccc(C(F)(F)F)cc1)c1ccccc1` (stereo not shown) [Fluoxetine], the viability at 10 µM in assay [1] (setting [4]) is 98.5%. Further, in assay [2] (setting [5]), the activity at 1 µM is 105%. In addition, the Fractional motility is 15.72 in assay [2] (setting [7]); 0.95 in assay [2] (setting [8]); 1.96 in the assay with S. mansoni adult worms (D1, Female adult worms); 2.26 with S. mansoni adult worms (D1, Male adult worms); 0.45 in the assay on S. mansoni adult worms (D5, Female adult worms); -0.0243 with S. mansoni adult worms (D5, Male adult worms). In addition, the Phenotype entry in assay [3] is reported as “elongated”.
For `COCCCC/C(=N\OCCN)c1ccc(C(F)(F)F)cc1` [Fluvoxamine], the viability at 10 µM in assay [1] (setting [4]) was 97%. Besides, the activity at 1 µM in assay [2] (setting [5]) came to 99%; in assay [2] (setting [6]) it was 812%. The Fractional motility in assay [2] (setting [7]) was determined as 10.49; in assay [2] (setting [8]), 3.18; with S. mansoni adult worms (D1, Female adult worms) it was 1.69; in the assay with S. mansoni adult worms (D1, Male adult worms) it was 4.13; in the assay on S. mansoni adult worms (D5, Female adult worms), 0.13; with S. mansoni adult worms (D5, Male adult worms) it was 0.22. Also, the Phenotype entry in assay [3] is “elongated”.
On to `C#C[C@]1(O)C=C[C@H]2[C@@H]3CCC4=CC(=O)CC[C@@H]4[C@H]3CC[C@@]21CC` [Gestodene], for which the viability at 10 µM in assay [1] (setting [4]) was 98%. Also, the figures for the activity at 1 µM in assay [2] (setting [5]) and in assay [2] (setting [6]) were -29% and 51%, respectively. In addition, the Fractional motility in assay [2] (setting [7]) was 4.27; in assay [2] (setting [8]), -0.32; in the assay with S. mansoni adult worms (D1, Female adult worms) it was 1.24; with S. mansoni adult worms (D1, Male adult worms) it was 3.68. Further, the Phenotype entry in assay [3] was “granulated”.
Consider `C=CC(=O)N1CCC[C@@H](n2nc(-c3ccc(Oc4ccccc4)cc3)c3c(N)ncnc32)C1` [Ibrutinib], for which, in assay [1] (setting [4]), the viability at 10 µM was 84.5%. The figures for the activity at 1 µM in assay [2] (setting [5]) and in assay [2] (setting [6]) were 244% and -18%, respectively. Moreover, the Fractional motility in assay [2] (setting [7]) is listed as 0.000588; in assay [2] (setting [8]), -0.29; in the assay with S. mansoni adult worms (D1, Female adult worms), 0.33; with S. mansoni adult worms (D1, Male adult worms) it was 2.36; in the assay on S. mansoni adult worms (D5, Female adult worms), 0.36; in the assay with S. mansoni adult worms (D5, Male adult worms) it was 0.94. The Phenotype entry in assay [3] is listed as “dark, granulated”.
Consider `CC(C(O)c1ccc(O)cc1)N1CCC(Cc2ccccc2)CC1` (stereo not shown) [Ifenprodil], for which, in assay [1] (setting [4]), the viability at 10 µM is 98.5%. The activity at 1 µM in assay [2] (setting [5]) stood at 11%; in assay [2] (setting [6]), 81%. Moreover, the Fractional motility is given as 0.47 in assay [2] (setting [7]); -0.10 in assay [2] (setting [8]); 1.05 in the assay with S. mansoni adult worms (D1, Female adult worms); 1.73 in the assay with S. mansoni adult worms (D1, Male adult worms); -0.36 with S. mansoni adult worms (D5, Female adult worms); -0.44 in the assay with S. mansoni adult worms (D5, Male adult worms). In addition, in assay [3], the Phenotype result is “abnormal morphology, granulated”.
As to `Cc1ccc(C(=O)N(CCCN)[C@@H](c2nc3cc(Cl)ccc3c(=O)n2Cc2ccccc2)C(C)C)cc1` [Ispinesib], in assay [1] (setting [4]), the viability at 10 µM is 96%. The activity at 1 µM in assay [2] (setting [5]) was 125%; in assay [2] (setting [6]), 24%. Also, the Fractional motility in assay [2] (setting [7]) was -0.92; in assay [2] (setting [8]), -0.39; with S. mansoni adult worms (D1, Female adult worms), 3.19; in the assay on S. mansoni adult worms (D1, Male adult worms), 2.22; in the assay with S. mansoni adult worms (D5, Female adult worms), -0.34; in the assay with S. mansoni adult worms (D5, Male adult worms), -0.33. For the same molecule, the Phenotype result in assay [3] is “big, granulated”.
In the case of `Cc1cc(Nc2ncc(Cl)c(Nc3ccccc3S(=O)(=O)C(C)C)n2)c(OC(C)C)cc1C1CCNCC1` [LDK378], the viability at 10 µM in assay [1] (setting [4]) is 0%. The figures for the activity at 1 µM in assay [2] (setting [5]) and in assay [2] (setting [6]) were 120% and 7%, respectively. Besides, the Fractional motility is -0.83 in assay [2] (setting [7]); -0.96 in assay [2] (setting [8]); -0.38 in the assay with S. mansoni adult worms (D1, Female adult worms); -0.0381 with S. mansoni adult worms (D1, Male adult worms); -0.63 with S. mansoni adult worms (D5, Female adult worms); -0.31 with S. mansoni adult worms (D5, Male adult worms). The “motility phenotype in words” value with S. mansoni adult worms (adults, long-term after washout) is listed as “Significant hypomotility”. Moreover, in assay [3], the Phenotype result is “dark, granulated”.
